Our source for the GI50 and TGI values is PubChem BioAssay (NCI).

Where “and” joins values, the source holds several entries; their conditions need not be identical. Identical values can stand only once.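 Each compound was tested at five concentrations against cells in 96-well plates for 48 hours. The concentration for 50% growth inhibition is given as GI50. TGI denotes the concentration required for complete inhibition of growth.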 *1 amine or outer side, *2 acyl side, *3 side chain or, on linkers, in order; H or OH if unused. Where a SMILES comes first, the peptide text is derived from it. Bridges are numbered along the chain shown (N, C = ends). Roman numbers before positions name the chains, in order. [ ]: non-standard residue; d: D form. Actinocin(9to1) = Cc1c2oc3c(C)ccc(C(=O)[*:1])c3nc-2c(C(=O)[*:2])c(N)c1=O; NMeH = CN[CH](Cc1c[nH]cn1)C(=O)O; Sar = CNCC(=O)O

Test systems include KM12 colon; MALME-3M melanoma; 786-0 renal; NCI-H226 lung; SF-268 CNS; SNB-19 CNS; SF-539 CNS; UO-31 renal; NCI-H460 lung; HL-60(TB) leukemia.
What all share (test): inhibition of tumour cell growth, NCI panel, 48 h

Take `N#Cc1nc(-c2ccc(F)cc2)oc1S(=O)(=O)N1CCCCC1`: the GI50 is 5.23 µM in the assay with KM12 colon; 1.69 µM in the assay on MALME-3M melanoma; 1800 nM in the assay with 786-0 renal; 19.1 µM with NCI-H226 lung; 2230 nM in the assay with SF-268 CNS; 11 µM in the assay on SNB-19 CNS. In addition, the GI50 was 1.73 µM with SF-539 CNS, 1.58 µM in the assay on UO-31 renal, 4.77 µM with NCI-H460 lung and 2.54 µM in the assay with HL-60(TB) leukemia. The TGI was 19.3 µM in the assay on KM12 colon; 3.37 µM in the assay with MALME-3M melanoma; 3.53 µM in the assay with 786-0 renal; 42.1 µM in the assay with NCI-H226 lung; 6.23 µM in the assay with SF-268 CNS; 23 µM in the assay with SNB-19 CNS. The TGI was 3.12 µM in the assay on SF-539 CNS, 2.93 µM in the assay on UO-31 renal, 19.6 µM in the assay on NCI-H460 lung and 7.02 µM in the assay with HL-60(TB) leukemia.
Take `C#CC1(O)CCC2C3CCc4cc(Oc5nc(F)nc(-c6c7ccccc7c7n6CCS7)n5)ccc4C3CC[C@@]21C` (some centres not stated): the TGI was 28.3 µM in the assay with KM12 colon; over 100 µM in the assay on MALME-3M melanoma; over 100 µM in the assay on 786-0 renal; 92.5 µM with NCI-H226 lung; over 100 µM with SF-268 CNS; 70.6 µM with SNB-19 CNS. Also, the TGI was 33 µM in the assay with SF-539 CNS, 78.3 µM in the assay on UO-31 renal, over 100 µM with NCI-H460 lung and 54.5 µM in the assay on HL-60(TB) leukemia.
As for `CC(C)/C=C1\CCC(CN2CCOCC2)C1=O` (configuration not stated), the TGI is 23.6 µM in the assay with KM12 colon; 31 µM in the assay on MALME-3M melanoma; 8.9 µM in the assay with 786-0 renal; 94.8 µM with NCI-H226 lung; 52.5 µM in the assay with SF-268 CNS; over 100 µM with SNB-19 CNS. Further, the TGI is 29.3 µM in the assay on SF-539 CNS, 38.6 µM with UO-31 renal, over 60.7 µM in the assay on NCI-H460 lung and 5.58 µM in the assay with HL-60(TB) leukemia.
Regarding `O=C1NC(N/N=C\C(O)C(O)C(O)C(O)CO)=N/C1=C/c1ccccc1` (configuration not stated), the GI50 is 41.6 µM and 16.2 µM and > 100 µM in the assay on KM12 colon; > 100 µM and 19.3 µM in the assay with MALME-3M melanoma; 57500 nM and 19300 nM and > 100000 nM in the assay on 786-0 renal; > 100 µM and 19.5 µM with NCI-H226 lung; > 100000 nM and 15200 nM in the assay on SF-268 CNS; 58 µM and 15.3 µM and > 100 µM with SNB-19 CNS. The GI50 is > 100 µM and 17.4 µM with SF-539 CNS; > 100 µM and 17.3 µM in the assay on UO-31 renal; 75.8 µM and 11.8 µM and > 100 µM with NCI-H460 lung; 77.2 µM and 41.8 µM and > 100 µM with HL-60(TB) leukemia. Besides, the TGI was > 100 µM and 36.7 µM in the assay on KM12 colon; > 100 µM and 37.6 µM with MALME-3M melanoma; > 100 µM and 41.3 µM with 786-0 renal; > 100 µM and 40.8 µM in the assay on NCI-H226 lung; > 100 µM and 42.7 µM with SF-268 CNS; > 100 µM and 33.3 µM with SNB-19 CNS. Also, the TGI in the assay with SF-539 CNS was > 100 µM and 35.3 µM; with UO-31 renal, > 100 µM and 32.2 µM; with NCI-H460 lung it was > 100 µM and 25.6 µM; with HL-60(TB) leukemia, over 100 µM.
Turning to `Cc1cc(N(CCC#N)S(=O)(=O)c2ccccc2)ccc1/C=C1\N=C(c2ccc(Cl)cc2)OC1=O`, the TGI in the assay with KM12 colon, in the assay with MALME-3M melanoma, in the assay with 786-0 renal, with NCI-H226 lung, in the assay on SF-268 CNS and in the assay on SNB-19 CNS was over 100 µM each time. In addition, the TGI in the assay with SF-539 CNS, with UO-31 renal, in the assay with NCI-H460 lung and in the assay with HL-60(TB) leukemia was over 100 µM throughout.
With `CC(C)N(C(=O)c1cccc(C(=O)N(C(C)C)C(C)C)c1)C(C)C`, the TGI in the assay with KM12 colon, in the assay on MALME-3M melanoma, in the assay with 786-0 renal, in the assay with NCI-H226 lung, in the assay on SF-268 CNS and in the assay with SNB-19 CNS was over 100 µM in each case. The TGI in the assay with SF-539 CNS, with UO-31 renal, in the assay with NCI-H460 lung and in the assay on HL-60(TB) leukemia was over 100 µM each time.
For the compound `COC(=O)c1cc(-c2ccccc2)[nH]c1N/N=C/c1c(Cl)cccc1Cl`, the GI50 with KM12 colon is 0.274 µM; in the assay on MALME-3M melanoma, 0.34 µM; with 786-0 renal it was 410 nM; in the assay with NCI-H226 lung it was 0.369 µM; in the assay on SF-268 CNS, 436 nM; with SNB-19 CNS, 0.435 µM. Further, the GI50 with SF-539 CNS was 0.218 µM; with UO-31 renal it was 0.609 µM; in the assay with NCI-H460 lung it was 0.319 µM; in the assay on HL-60(TB) leukemia it was 0.289 µM. For the same compound, the TGI in the assay with KM12 colon came to 1.57 µM; in the assay on MALME-3M melanoma, 6.67 µM; with 786-0 renal, 8.39 µM; in the assay on SF-268 CNS, 8.25 µM; with SNB-19 CNS it was 15.3 µM; with SF-539 CNS it was 0.605 µM. Further, the TGI in the assay on UO-31 renal is over 56.3 µM; in the assay on NCI-H460 lung it was 1.25 µM.
With `Cc1c2oc3c(C)ccc(C(=O)NC4C(=O)NC(C(C)C)C(=O)N5CCCC5C(=O)N(C)CC(=O)N(C)C(Cc5cnc[nH]5)C(=O)OC4C)c3nc-2c(C(=O)NC2C(=O)NC(C(C)C)C(=O)N3CCCC3C(=O)N(C)CC(=O)N(C)C(Cc3cnc[nH]3)C(=O)OC2C)c(N)c1=O` (configuration not stated) (I: TVP[Sar][NMeH] / II: TVP[Sar][NMeH]; ester I:1-I:C, II:1-II:C; linker I:N-II:N via Actinocin(9to1); configuration not given here), the TGI in the assay with KM12 colon, with MALME-3M melanoma, in the assay with 786-0 renal, in the assay with NCI-H226 lung, in the assay with SF-268 CNS and in the assay with SNB-19 CNS was over 100 µM in each case. The TGI with SF-539 CNS, in the assay on UO-31 renal, with NCI-H460 lung and in the assay on HL-60(TB) leukemia was over 100 µM each time.
In the case of `COc1ccc([C@H](CC(=O)O)N2CCN(CCCc3ccc4c(n3)NCCC4)C2=O)cn1`, the GI50 in the assay with KM12 colon was over 100 µM; in the assay with MALME-3M melanoma, over 100 µM; in the assay with 786-0 renal, 346 nM; in the assay with NCI-H226 lung, 0.417 µM; in the assay with SF-268 CNS it was 754 nM; in the assay with SNB-19 CNS it was 0.426 µM. Also, the GI50 with SF-539 CNS was over 100 µM; in the assay with UO-31 renal it was over 36.7 µM; in the assay with NCI-H460 lung it was 4.36 µM; with HL-60(TB) leukemia it was over 100 µM. In addition, the TGI with KM12 colon, in the assay on MALME-3M melanoma, in the assay with 786-0 renal, with SF-268 CNS, in the assay with SNB-19 CNS and in the assay on SF-539 CNS was over 100 µM in each case. The TGI in the assay on UO-31 renal, in the assay with NCI-H460 lung and with HL-60(TB) leukemia was over 100 µM in each case.
Consider `COC(=O)CCC(NC(=S)N/N=C(\C)c1ccc[nH]1)C(=O)OC` (configuration not stated), for which the TGI in the assay on KM12 colon, in the assay on MALME-3M melanoma, with 786-0 renal, in the assay on NCI-H226 lung, with SF-268 CNS and in the assay on SNB-19 CNS was over 100 µM each time. Further, the TGI in the assay on SF-539 CNS, with UO-31 renal, with NCI-H460 lung and in the assay on HL-60(TB) leukemia was over 100 µM each time.
